{
  "source": "patent US7781613B2",
  "about": "“Substituted N-aminomethylene sulfonamides, production and use thereof as medicaments” (Sanofi-Aventis, priority 2005, dated 2010)",
  "key": {"[1]": {"molecular_target": "T1, hormone-sensitive lipase (HSL) (Rattus norvegicus, UniProt P15304)", "T1 construct": "Isolated rat fat cells are obtained from epididymal adipose tissue from untreated male rats; from tissue; host or cells: rat (Wistar) epididymal adipose tissue, isolated fat cells", "T1 sequence (P15304 1-768 isoform P15304-2)": "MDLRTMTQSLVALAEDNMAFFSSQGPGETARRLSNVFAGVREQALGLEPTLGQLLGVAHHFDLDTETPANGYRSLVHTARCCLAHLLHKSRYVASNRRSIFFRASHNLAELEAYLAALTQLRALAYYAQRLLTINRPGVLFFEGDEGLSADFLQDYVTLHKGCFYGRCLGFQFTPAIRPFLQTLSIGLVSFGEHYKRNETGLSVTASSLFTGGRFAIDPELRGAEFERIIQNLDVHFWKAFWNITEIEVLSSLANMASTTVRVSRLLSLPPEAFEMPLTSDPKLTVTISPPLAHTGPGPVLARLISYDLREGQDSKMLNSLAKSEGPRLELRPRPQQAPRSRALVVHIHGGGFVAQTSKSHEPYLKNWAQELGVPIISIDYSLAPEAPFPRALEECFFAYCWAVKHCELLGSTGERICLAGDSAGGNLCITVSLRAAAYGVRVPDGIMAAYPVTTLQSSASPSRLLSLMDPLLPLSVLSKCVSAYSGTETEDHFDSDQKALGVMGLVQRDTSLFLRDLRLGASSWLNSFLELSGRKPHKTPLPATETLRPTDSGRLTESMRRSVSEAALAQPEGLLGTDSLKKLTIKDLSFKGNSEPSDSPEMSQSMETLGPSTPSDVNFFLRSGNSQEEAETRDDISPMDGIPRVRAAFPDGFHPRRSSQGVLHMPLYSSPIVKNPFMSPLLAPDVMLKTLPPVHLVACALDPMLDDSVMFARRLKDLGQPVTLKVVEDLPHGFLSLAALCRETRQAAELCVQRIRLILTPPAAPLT", "test": "HSL enzyme assay (NAG assay) with partially purified HSL", "type": "biochemical", "conditions": "inhibition of HSL enzymatic activity; partially purified HSL from rat fat cells; NAG substrate; 30° C., 60 min", "method": "The effect of the compounds of the invention of the formula I is tested in the following enzyme assay system: […]\nPreparation of the Partially Purified HSL:\nIsolated rat fat cells are obtained from epididymal adipose tissue from untreated male rats (Wistar, 220-250 g) by collagenase treatment in accordance with published methods (e.g. S, Nilsson et al., Anal. Biochem. 158, 1986, 399-407; G. Fredrikson et al., J. Biol. Chem. 256, 1981, 6311-6320; H. Tornquist et al., J. Biol. Chem. 251, 1976, 813-819). The fat cells from 10 rats are washed three times by flotation with 50 ml of homogenization buffer ([…] Tris/HCl, pH 7.4, 0.25 M sucrose, 1 mM EDTA, 1 mM DTT, 10 μg/ml leupeptin, 10 μg/ml antipain, 20 μg/ml pepstatin) each time and finally taken up in 10 ml of homogenization buffer. The fat cells are homogenized in a Teflon-in-glass homogenizer (Braun-Melsungen) by 10 strokes at 1500 rpm and 15° C. The homogenate is centrifuged (Sorvall SM24 tubes, 5000 rpm, 10 min, 4° C.). The subnatant between the layer of fat at the top and the pellet is removed and the centrifugation is repeated. The subnatant resulting therefrom is centrifuged again (Sorvall SM24 tubes, 20 000 rpm, 45 min, 4° C.). […] After incubation at 4° C. for 60 min (shaking at intervals of 15 min), the mixture is centrifuged (Sorvall SM24 tubes, 3000 rpm, 10 min, 4° C.). The supernatant is adjusted to pH 5.2 by adding glacial acetic acid and is incubated at 4° C. for 30 min. The precipitates are collected by centrifugation (Sorvall SS34, 12 000 rpm, 10 min, 4° C.) and suspended in 2.5 ml of 20 mM Tris/HCl, pH 7.0, 1 mM EDTA, 65 mM NaCl, 13% sucrose, 1 mM DTT, 10 μg/ml leupeptin/pepstatin/antipain. The suspension is dialyzed against 25 mM Tris/HCl, pH 7.4, 50% glycerol, 1 mM DTT, 10 μg/ml leupeptin, pepstatin, antipain at 4° C. overnight and then loaded onto a hydroxiapatite column (0.1 g per 1 ml of suspension, equilibrated with 10 mM potassium phosphate, pH 7.0, 30% glycerol, 1 mM DTT). The column is washed with four volumes of equilibration buffer at a flow rate of 20 to 30 ml/h. The HSL is eluted with one volume of equilibration buffer containing 0.5 M potassium phosphate and then dialyzed (see above) and concentrated 5- to 10-fold by ultrafiltration (Amicon Diaflo PM 10 Filter) at 4° C. The partially purified HSL can be stored at −70° C. for 4 to 6 weeks.\nPreparation of NAG (NBD Monoacyl Glyceride) Substrate:\n6 mg of phosphatidylcholine and 6 mg of phosphatidylinositol are each dissolved in 1 ml of chloroform. 10 mg of NAG are dissolved in 1 ml of chloroform. Two parts of phosphatidylinositol solution (e.g. 83.5 μl) and one part of phosphatidylcholine solution (e.g. 41.5 μl) and 100 μl of NAG solution are pipetted together into plastic scintillation vessels (final concentration in the assay: 0.0375 mg of phospholipid/ml; 0.05 mg/NAG/ml). The chloroform (225 μl total volume) is completely removed by passing a stream of N2 over it. The dried substrate can be stored at 4° C. for up to 3 days. To prepare the phospholipid vesicles/micelles with intercalated NAG (on the day of the assay), the dried substrate is taken up in 20 ml of assay buffer (25 mM Tris/HCl, pH 7.4; 150 mM NaCl) and two ultrasound treatments carried out with an ultrasonic probe (Branson Sonifier Type II, standard microtip): 1st treatment setting 2, 2×1 min, in between 1 min on ice each time; 2nd treatment setting 4, 2×1 min, in between 1 min on ice each time. During this procedure, the color of the substrate solution changes from yellow (extinction maximum 481 nm) to red (extinction maximum 550 nm) owing to intercalation of NAG between the phospholipid molecules in the vesicles/micelles. Before use as substrate (within the next 2 h), the solution is incubated on ice for 15 min.\nThe assay is carried out in 1.5 ml Eppendorf vessels or 96-well plates at 30° C. for 60 min. […]"}},
  "data": [
    {"smiles": "CN(C)C=NS(=O)(=O)c1cc(S(=O)(=O)N2CCCC(C)(C)C2)ccc1Cl", "note": "[Example 24, 6-Chloro-N-dimethylaminomethylene-3-(3,3-dimethylpiperidinosulfonyl]-benzenesulfonamide]", "values": [
      {"measurement": "melting point", "result": 123, "unit": "°C"}
    ]},
    {"smiles": "CC1CC(NC(=O)c2ccc(Cl)c(S(=O)(=O)N=CN(C)C)c2)CC(C)(C)C1", "note": "(stereo not shown) [Example 10, 4-Chloro-3-(dimethylaminomethylenesulfamoyl)-N-(3,3,5-trimethylcyclohexyl)benzamide]", "values": [
      {"measurement": "melting point", "result": 180, "unit": "°C"}
    ]},
    {"smiles": "CN(C)C=NS(=O)(=O)c1cc(S(=O)(=O)NC2CCCCC2)c(N)cc1C(F)(F)F", "note": "[Example 48, 2-Amino-4-trifluoromethyl-5-dimethylaminomethylenesulfamoyl-N-cyclohexyl-benzenesulfonamide]", "values": [
      {"measurement": "IC50", "setting": "[1]", "result": 700, "unit": "nM"},
      {"measurement": "melting point", "result": "> 185 °C (dec.)"}
    ]},
    {"smiles": "CN(C)C=NS(=O)(=O)c1cc(C(=O)NCc2ccccc2Cl)ccc1Cl", "note": "[Example 16, 4-Chloro-3-(dimethylaminomethylenesulfamoyl)-N-(2-chlorophenylmethyl)benzamide]", "values": [
      {"measurement": "melting point", "result": 167, "unit": "°C"}
    ]},
    {"smiles": "CC1CC(NS(=O)(=O)c2cc(S(=O)(=O)N=CN(C)C)c(C(F)(F)F)cc2N)CC(C)(C)C1", "note": "(stereo not shown) [Example 26, 2-Amino-4-trifluoromethyl-5-dimethylaminomethylenesulfamoyl-N-(3,3,5-trimethyl-cyclohexyl)benzenesulfonamide]", "values": [
      {"measurement": "melting point", "result": "> 165 °C (dec.)"}
    ]},
    {"smiles": "CC1CC(NS(=O)(=O)c2ccc(Cl)c(S(=O)(=O)N=CN(C)C)c2)CC(C)(C)C1", "note": "(stereo not shown) [Example 23, 6-Chloro-N-dimethylaminomethylene-3-(3,3,5-trimethylcyclohexylaminosulfonyl]benzenesulfonamide]", "values": [
      {"measurement": "IC50", "setting": "[1]", "result": 150, "unit": "nM"}
    ]},
    {"smiles": "C=CCN(C1CCCCC1)S(=O)(=O)c1cc(S(=O)(=O)N=CN(C)C)c(Cl)cc1N", "note": "[Example 33, 2-Amino-4-chloro-5-dimethylaminomethylenesulfamoyl-N-cyclohexyl-N-allyl-benzenesulfonamide]", "values": [
      {"measurement": "IC50", "setting": "[1]", "result": 200, "unit": "nM"},
      {"measurement": "melting point", "result": 90, "unit": "°C"}
    ]},
    {"smiles": "CC(C)CN(CC(C)C)S(=O)(=O)c1cc(S(=O)(=O)N=CN(C)C)c(Cl)cc1N", "note": "[Example 29, 2-Amino-4-chloro-5-dimethylaminomethylenesulfamoyl-N-diisobutylbenzenesulfonamide]", "values": [
      {"measurement": "IC50", "setting": "[1]", "result": 700, "unit": "nM"},
      {"measurement": "melting point", "result": 126, "unit": "°C"}
    ]},
    {"smiles": "Cc1cc(C)cc(OCc2ccc(Cl)c(S(=O)(=O)N=CN(C)C)c2)c1", "note": "[Example 19, 6-Chloro-N-dimethylaminomethylene-3-[(3,5-dimethylphenoxy)methyl]benzenesulfonamide]", "values": [
      {"measurement": "IC50", "setting": "[1]", "result": 400, "unit": "nM"},
      {"measurement": "melting point", "result": 137, "unit": "°C"}
    ]},
    {"smiles": "CN(C)C=NS(=O)(=O)c1cc(C(=O)NC2CC(C)(C)NC(C)(C)C2)ccc1Cl", "note": "[Example 11, 4-Chloro-3-(dimethylaminomethylenesulfamoyl)-N-(2,2,6,6-tetramethylpiperidin-4-yl)-benzamide]", "values": [
      {"measurement": "melting point", "result": 192, "unit": "°C"}
    ]},
    {"smiles": "CC1CC(N(Cc2ccc(Cl)c(S(=O)(=O)N=CN(C)C)c2)S(C)(=O)=O)CC(C)(C)C1", "note": "(stereo not shown) [Example 21, 6-Chloro-N-dimethylaminomethylene-3-[(N-(3,3,5-trimethylcyclohexyl)-N-methylsulfonylamino)methyl]benzenesulfonamide]", "values": [
      {"measurement": "IC50", "setting": "[1]", "result": 500, "unit": "nM"}
    ]},
    {"smiles": "CCCCCCCCNS(=O)(=O)c1cc(S(=O)(=O)N=CN(C)C)c(Cl)cc1N", "note": "[Example 38, 2-Amino-4-chloro-5-dimethylaminomethylenesulfamoyl-N-octylbenzenesulfonamide]", "values": [
      {"measurement": "melting point", "result": 110, "unit": "°C"}
    ]},
    {"smiles": "CC(C)N(C1CCCCC1)S(=O)(=O)c1cc(S(=O)(=O)N=CN(C)C)c(Cl)cc1N", "note": "[Example 34, 2-Amino-4-chloro-5-dimethylaminomethylenesulfamoyl-N-cyclohexyl-N-isopropyl-benzenesulfonamide]", "values": [
      {"measurement": "melting point", "result": "122 °C (dec.)"}
    ]},
    {"smiles": "COc1ccc(S(=O)(=O)N=CN(C)C)cc1CN1CC(C)CC(C)C1", "note": "(stereo not shown) [Example 8, N-Dimethylaminomethylene-4-methoxy-3-[(3,5-dimethylpiperidino)methyl]benzenesulfonamide]", "values": [
      {"measurement": "melting point", "result": 89, "unit": "°C"}
    ]},
    {"smiles": "CCCCN(CCCC)S(=O)(=O)c1cc(S(=O)(=O)N=CN(C)C)c(Cl)cc1N", "note": "[Example 28, 2-Amino-4-chloro-5-dimethylaminomethylenesulfamoyl-N-dibutylbenzenesulfonamide]", "values": [
      {"measurement": "IC50", "setting": "[1]", "result": 30, "unit": "nM"}
    ]},
    {"smiles": "CC1CC(NS(=O)(=O)c2cc(S(=O)(=O)N=CN(C)C)c(Cl)cc2N)CC(C)(C)C1", "note": "(stereo not shown) [Example 32]", "values": [
      {"measurement": "IC50", "setting": "[1]", "result": 1, "unit": "nM"},
      {"measurement": "melting point", "result": 100, "unit": "°C"}
    ]},
    {"smiles": "Cc1cc(C)cc(NC(=O)c2ccc(Cl)c(S(=O)(=O)N=CN(C)C)c2)c1", "note": "[Example 12, 4-Chloro-3-(dimethylaminomethylenesulfamoyl)-N-(3,5-dimethylphenyl)benzamide]", "values": [
      {"measurement": "melting point", "result": 216, "unit": "°C"}
    ]}
  ]
}
